Results as given in patent US20160015704A1, “COMBINATIONS COMPRISING MABA COMPOUNDS AND CORTICOSTEROIDS” (ALMIRALL, S.A., priority 2013, published 2016).

Test system: IL-8 secretion induced by LPS in peripheral blood neutrophils
Assay: Inhibition of IL-8 secretion induced by LPS in isolated peripheral blood neutrophils (ELISA)
Type: cell-based
Conditions: Homo sapiens, Neutrophil; for inhibition at 10 pM: single agent 0.01 nM
Description: 5 Healthy subjects were included for leukocyte experiments. Pulmonary function tests (forced spirometry) and arterial blood gas measurements were performed during the days prior to sample.
Neutrophils were isolated from peripheral blood of healthy volunteers according to standard procedures established in the laboratory (Milara J et al., Respiration 2012; 83, 147-158).
Isolated neutrophils were incubated with different drugs (MABA compound, mometasone or fluticasone) or vehicle for 30 minutes before incubation with LPS (1 mcg/mL) (Lipopolysaccharide, a representative stimulus as inflammatory mediator) for 6 hours in standard cell culture conditions (37° C. and 5% CO2). Supernatant were collected to measure IL-8 (the inflammatory marker).
IL-8 (Interleukin-8) was determined by ELISA according to the standard procedure.
Data was presented as mean±SEM. Statistical analysis of results was carried out by analysis of variance (ANOVA) followed by Bonferroni test, by Student's t test, or by non-parametric tests as appropriate (GraphPad Software Inc, San Diego, Calif., USA). Significance was accepted when P<0.05.

[1] = 30 min pre-incubation, LPS 1 mcg/mL 6 h, neutrophils from healthy subjects (5 volunteers in triplicate), Table 1

Compound | inhibition at 0.0001 µM (single agent 0.1 nM, IL-8 secretion induced by LPS 1 mcg/mL 6 h, neutrophils from healthy subjects, Table 2) [%] | inhibition at 10 pM [1] [%] | inhibition at 10 pM (IL-8 secretion induced by LPS 1 mcg/mL 6 h, neutrophils from healthy subjects, Table 2) [%]
C[C@@H]1C[C@H]2[C@@H]3C[C@H](F)C4=CC(=O)C=C[C@]4(C)[C@@]3(F)[C@@H](O)C[C@]2(C)[C@@]1(O)C(=O)SCF [Fluticasone, fluticasone] | 10.2 |  | 
COc1cc(NC(=O)OCCN(C)[C@H]2CC[C@H](OC(=O)C(O)(c3cccs3)c3cccs3)CC2)c(Cl)cc1CNC[C@H](O)c1ccc(O)c2[nH]c(=O)ccc12 [Cpd 1, trans-4-[{2-[({[2-chloro-4-({[(2R)-2-hydroxy-2-(8-hydroxy-2-oxo-1,2-dihydroquinolin-5-yl)ethyl]amino}methyl)-5-methoxyphenyl]amino}carbonyl)oxy]ethyl}-(methyl)amino]cyclohexyl hydroxy(di-2-thienyl)acetate] |  | 5.6 | 5.6
C[C@@H]1C[C@H]2[C@@H]3CCC4=CC(=O)C=C[C@]4(C)[C@@]3(Cl)[C@@H](O)C[C@]2(C)[C@@]1(O)C(=O)CCl [Mometasone, mometasone] |  | 2.85 | 
